Each structure is given as a SMILES string. ± gives the expanded uncertainty stated by the source.

The nature of data set [1]: Molar enthalpy of transition or fusion. The following applies: Crystal; DSC.
The conditions of data set [2]: Crystal; DTA.

On to `Cc1nc(C)c(C)nc1C` [tetramethylpyrazine], for which the “Molar enthalpy of transition or fusion” value in data set [1] is 16.4 ± 1.7 kJ/mol. Further, the Normal melting temperature in data set [2] was 85.40 ± 1.1 °C.

The record behind these values is the NIST ThermoML archive (doi:10.1021/acs.jced.8b00888).
